From US20130210143A1, “NOVEL METHODS FOR PREVENTING OR TREATING DIABETES” (FUNDACION PUBLICA ANDALUZA PROGRESO Y SALUD, priority 2010, published 2013)
Entries after “also recorded” stand apart in the source; their conditions may differ.

What was measured:
human islets [1] = test: MTT toxicity test (cell viability) in isolated human islets; type: cell-based; settings: for Islet viability (MTT): islets of the first Type 2 diabetic donor, 48 h, Formula II at 50 uM
Experimental: The MTT (C,N-diphenyl-N′-4,5-dimethyl thiazol-2-yl tetrazolium bromide) colorimetric assay (reduction of tetrazolium salt to formazan) was used to measure cell viability. The assay provides an indirect estimation of mitochondrial oxidative processes of living cells (Janjic, 1992). Briefly, 40 isolated human islets were incubated for 24 or 48 hours with DMSO or a combination of DMSO and the LRH-1 agonist of Formula II. Islets were washed and pre-incubated with KRBH at 37° C. for 40 minutes. Islets were then incubated at 37° C. for 90 minutes with KRBH containing yellow MTT (0.5 mg/ml). Cells were wash and incubated for 20 minutes at room temperature in DMSO to solubilize formazan crystals. Colorimetric measurements were performed at 570 nm with reference wavelength 650 nm automatically subtracted.

LRH-1 = test: Quantitative RT-PCR of LRH-1 transcript levels in treated human islets; type: cell-based; settings: for LRH-1 expression (transcript levels): 10 nM 17β-estradiol (6 hours) or 10 or 50 uM Formula II (any time point)
Experimental: (§1) INS-1E cells or islets (rat or human) were cultured in phenol red free medium containing 10% Charcoal-stripped FCS for 48 h. The latter removes all traces of endogenous steroids, which may skew results. Subsequently, 0.0001% DMSO (vehicle) and/or 10 nM 17β-estradiol were added to the media. Alternatively human islets were also treated with increasing concentrations of either DMSO (vehicule) or with a combination of estrogen and the LRH-1 agonist of Formula II (SevenHills Pharma, Fort Collins, USA) for various time intervals. For apoptosis studies (FIG. 8A), islets were pre-treated with 0.1% DMSO (vehicule) or with 10 μM of the LRH-1 agonist of Formula II. Twenty-four hours later, DMSO or the LRH-1 agonist of Formula II were added again to the medium and incubated for 1 extra hour prior to the addition of either a cocktail of human cytokines (2 ng/ml IFN-γ, IL-1β and TNF-α). Samples of 50 islets were then collected at 24 and 72 hours. The media was replenished with DMSO and the LRH-1 agonist of Formula II at 24 and 48 hours.
(§2) Total RNA was extracted using the RNeasy Micro Kit (Qiagen) and 1-2 μg was converted into cDNA with the Superscript II Reverse transcriptase (Invitrogen). Primers were designed using the Primer Express software (Applera Europe, Rotkreuz, Switzerland) and sequences are provided in Table 1. Real time PCR was performed using an ABI 7000 Sequence Detection System (Applera Europe), and PCR products were quantified fluorometrically using the FastStart Universal SYBR Green Master (Roche Diagnostics, Rotkreuz, Switzerland). Three distinct amplifications were performed in duplicate for each transcript, and mean values were normalized to the mean value of the reference mRNA cyclophilin.

SHP = test: Quantitative RT-PCR of SHP (LRH-1 downstream target) transcript levels in treated human islets; type: cell-based; settings: for Further stimulation of SHP expression: human islets, increased concentration of Formula II or addition of 17β-estradiol
Experimental: as §1, §2

human islets [2] = test: Cytokine-induced apoptosis in human islets (Cell Death Detection ELISA); type: cell-based; settings: 10 uM, cytokines 2 ng/ml IFN-γ, IL-1β and TNF-α, 24 hours post-treatment
Experimental: INS-1E cells or islets (rat or human) were cultured in phenol red free medium containing 10% Charcoal-stripped FCS for 48 h. The latter removes all traces of endogenous steroids, which may skew results. Subsequently, 0.0001% DMSO (vehicle) and/or 10 nM 17β-estradiol were added to the media. Alternatively human islets were also treated with increasing concentrations of either DMSO (vehicule) or with a combination of estrogen and the LRH-1 agonist of Formula II (SevenHills Pharma, Fort Collins, USA) for various time intervals. For apoptosis studies (FIG. 8A), islets were pre-treated with 0.1% DMSO (vehicule) or with 10 μM of the LRH-1 agonist of Formula II. […]
For proliferation, 10 μM BrdU was added to INS-1E cells for 3 h, and to rat or human islets for 24 h. […] Cell apoptosis induced either by cytokines or streptozotocin was measured using the TUNEL assay (In Situ Cell Death Detection Kit, Roche). Alternatively, the Cell Death Detection ELISA^PLUS (Roche) was used to quantify the degree of cytoplasmic histone-associated-DNA-fragments. Results of BrdU and TUNEL assays are expressed as a percentage of BrdU- or TUNEL-positive cells (fluorescein- or TMR-red-labelled nuclei) over the total amount of cells (nuclei staining by DAPI). […]

control islets = test: Glucose-stimulated insulin secretion, control (non-diabetic) human islets; type: cell-based
Experimental: (§3) Twenty human islets/sample were preincubated with KRBH buffer (135 mM NaCl, 3.6 mM KCl, 2 mM NaHCO3, 0.5 mM NaH2PO4, 0.5 mM MgSO4, 1.5 mM CaCl2, 10 mM HEPES, pH 7.4, and 0.1% bovine serum albumin) containing 2.5 mM glucose for 30 min. Cells were then incubated for 30 min in KRBH buffer containing 2.5 mM or 16.5 mM glucose. In some instances islets were also cultured in the presence of increasing concentrations of a LRH-1 agonist of Formula II or glibenclamide. Insulin content, obtained by 10% acetic acid/ethanol (v/v) treatment on islets, and secreted insulin were quantified using the rat insulin enzyme immunoassay kit (Spi-Bio, Montigny le Bretonneux, France).

Type 2 diabetic islets = test: Glucose-stimulated insulin secretion, islets from Type 2 diabetic donors; type: cell-based, human
Experimental: as §3

[3] = biological target: T1, ligand binding domain of human LRH1 (Homo sapiens, UniProt O00482); settings: Whitby et al. (2006); cited from earlier work
T1 construct: made in house
T1 sequence (O00482 300-541): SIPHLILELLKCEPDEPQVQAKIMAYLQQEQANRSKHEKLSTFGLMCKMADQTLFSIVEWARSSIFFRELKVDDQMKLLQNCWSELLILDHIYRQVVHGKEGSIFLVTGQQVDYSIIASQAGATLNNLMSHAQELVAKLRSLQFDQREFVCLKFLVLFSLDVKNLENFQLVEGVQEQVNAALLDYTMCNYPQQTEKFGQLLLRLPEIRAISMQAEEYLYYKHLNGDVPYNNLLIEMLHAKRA

[4] = islets from a second Type 2 diabetic donor

Structure (SMILES)	Viability by MTT (cytotoxicity) (human islets [1]; human islets, up to 50 uM, 24 or 48 hours post treatment)	Islet viability (MTT) (human islets [1])	LRH-1 expression (transcript levels) (LRH-1)	LRH-1 expression on addition to 17β-estradiol (LRH-1; Formula II combined with 17β-estradiol)	SHP transcript levels, increase (SHP; human islets treated for 10 hours, transient) [fold]	Further stimulation of SHP expression (SHP)	Cytokine-induced enrichment in apoptotic cells, 24 hours (human islets [2])	Increase in basal insulin exocytosis (control islets; 50 uM, low glucose) [%]	Glucose-induced insulin secretion (control islets; 16.5 mM glucose)	Glucose-induced insulin secretion (Type 2 diabetic islets; islets from a Type 2 diabetic donor, 50 uM, not significant)	Insulin secretion in response to high glucose concentrations (Type 2 diabetic islets; [4])	Insulin secretion in response to low glucose concentrations (Type 2 diabetic islets; [4])	EC50 [3] [nM]	Insulin secretion at high glucose as compared to control islets (Type 2 diabetic islets; islets from a Type 2 diabetic donor, high glucose (16.5 mM)) [%]	Increase in insulin secretion at low glucose (Type 2 diabetic islets; islets from a Type 2 diabetic donor, low glucose) [%]
CCC/C=C(\CCC)C1=C(c2cccc(OC)c2)C2(Nc3ccccc3)CCCC2C1 (stereo not drawn) [Formula II]	no toxic effects; also recorded: no apparent detrimental effect	slightly reduced	did not enhance transcript levels	prevented the induction of LRH-1 expression	2	did not further stimulate expression of SHP	completely abrogated	50	unchanged	slight increase	increased insulin secretion	increased insulin secretion	430		
C[C@]12CC[C@@H]3c4ccc(O)cc4CC[C@H]3[C@@H]1CC[C@@H]2O [17β-estradiol, reference compound]			transiently increased			did not further stimulate expression of SHP									
COc1ccc(Cl)cc1C(=O)NCCc1ccc(S(=O)(=O)NC(=O)NC2CCCCC2)cc1 [Glibenclamide, reference compound]		impaired cell viability												214	80
